Source: PubChem BioAssay AID330 (DTP/NCI, 2004)
Where “and” joins values, the source holds several entries; their conditions need not be identical. Equal values may be shown once. Inconclusive results and toxic doses are left out.

Tested on: P388 leukemia ip, CD2F1 mice, survival T/C
Assay: NCI In Vivo Anticancer Drug Screen. Data for tumor model P388 Leukemia (intraperitoneal) in CD2F1 (CDF1) mice
Details: endpoint: median survival time, higher = longer survival
Procedure, shortened: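 Mice carrying the transplanted tumor received test compound or vehicle. Survival was recorded in each group, and the value is the treated-group measurement divided by that of the vehicle-treated control group.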

[1] = dose: 50.0 mg/kg/injection, schedule: Q01DX009 (ip), vehicle: saline with Tween-80
[2] = dose: 100.0 mg/kg/injection, schedule: Q01DX009 (ip), vehicle: saline with Tween-80
[3] = dose: 50.0 mg/kg/injection, schedule: Q01DX009 (ip), vehicle: Klucel (hydroxypropylcellulose) (HPC)

For `ClCCn1cnc2c(SCc3ccccc3Cl)ncnc21`, the T/C (dose: 25.0 mg/kg/injection, schedule: Q01DX009 (ip), vehicle: saline with Tween-80) was 100 % of control, the T/C [1] was 90 % of control and the T/C [2] was 90 % of control.
With `CC([NH-])C(C)[NH-].[Cl][Pt+2][Cl]` (stereo unspecified) the T/C (dose: 3.12 mg/kg/injection, schedule: Q01DX001 (ip), vehicle: Klucel (hydroxypropylcellulose) (HPC)) was 119 % of control, the T/C (dose: 12.5 mg/kg/injection, schedule: Q01DX001 (ip), vehicle: Klucel (hydroxypropylcellulose) (HPC)) was 153 % of control and 154 % of control and the T/C (dose: 25.0 mg/kg/injection, schedule: Q01DX001 (ip), vehicle: Klucel (hydroxypropylcellulose) (HPC)) was 184 % of control.
With `Cn1c(=O)[nH]cc(F)c1=O` the T/C (dose: 10.0 mg/kg/injection, schedule: Q01DX009 (ip), vehicle: saline) was 104 % of control, the T/C (dose: 20.0 mg/kg/injection, schedule: Q01DX009 (ip), vehicle: saline) was 100 % of control and the T/C (dose: 40.0 mg/kg/injection, schedule: Q01DX009 (ip), vehicle: saline) was 98 % of control.
For `CCCCC1(C)OC(C)CC(C)O1` (stereo unspecified), the T/C (dose: 60.0 mg/kg/injection, schedule: Q01DX005 (ip), vehicle: saline) was 97 % of control, the T/C (dose: 120.0 mg/kg/injection, schedule: Q01DX005 (ip), vehicle: saline) was 99 % of control and the T/C (dose: 240.0 mg/kg/injection, schedule: Q01DX005 (ip), vehicle: saline) was 108 % of control.
`Nc1nnc(-c2ccc(Cl)c(Cl)c2)o1` was tested, and the T/C (dose: 100.0 mg/kg/injection, schedule: Q04DX003 (ip), vehicle: Klucel (hydroxypropylcellulose) (HPC)) was 100 % of control, the T/C (dose: 200.0 mg/kg/injection, schedule: Q04DX003 (ip), vehicle: Klucel (hydroxypropylcellulose) (HPC)) was 105 % of control and the T/C (dose: 400.0 mg/kg/injection, schedule: Q04DX003 (ip), vehicle: Klucel (hydroxypropylcellulose) (HPC)) was 115 % of control.
With `Cc1ccc(OP(=O)(Oc2ccc(C)cc2)Oc2ccc(C)cc2)cc1.Cc1ccc(OP(=O)(Oc2ccc(C)cc2)Oc2ccc(C)cc2)cc1.Cc1ccc(OP(=O)(Oc2ccc(C)cc2)Oc2ccc(C)cc2)cc1.Cc1ccc(OP(=O)(Oc2ccc(C)cc2)Oc2cccc(C)c2)cc1.[Cd+2].[O-][Cl+3]([O-])([O-])O` the T/C (dose: 12.5 mg/kg/injection, schedule: Q01DX009 (ip), vehicle: Klucel (hydroxypropylcellulose) (HPC)) was 95 % of control, the T/C (dose: 25.0 mg/kg/injection, schedule: Q01DX009 (ip), vehicle: Klucel (hydroxypropylcellulose) (HPC)) was 96 % of control and the T/C [3] was 93 % of control and 96 % of control.
With `Cc1ccc(N2OC3(CCCCC3)n3c(=O)c4ccccc4c(=O)n3C2c2ccccc2)cc1` (stereo unspecified) the T/C [3] was 105 % of control, the T/C (dose: 100.0 mg/kg/injection, schedule: Q01DX009 (ip), vehicle: Klucel (hydroxypropylcellulose) (HPC)) was 106 % of control and the T/C (dose: 200.0 mg/kg/injection, schedule: Q01DX009 (ip), vehicle: Klucel (hydroxypropylcellulose) (HPC)) was 99 % of control.
With `N#Cc1c(N)nc2c(c1N)CCO2` the T/C [1] was 93 % of control, the T/C [2] was 96 % of control and the T/C (dose: 200.0 mg/kg/injection, schedule: Q01DX009 (ip), vehicle: saline with Tween-80) was 99 % of control.
With `COCC(=O)Oc1ccc[nH]c1=O` the T/C (dose: 12.5 mg/kg/injection, schedule: Q01DX009 (ip), vehicle: saline) was 101 % of control and 113 % of control, the T/C (dose: 25.0 mg/kg/injection, schedule: Q01DX009 (ip), vehicle: saline) was 103 % of control and 107 % of control and the T/C (dose: 50.0 mg/kg/injection, schedule: Q01DX009 (ip), vehicle: saline) was 100 % of control and 106 % of control. For the same compound, the T/C (dose: 100.0 mg/kg/injection, schedule: Q01DX009 (ip), vehicle: saline) was 106 % of control and 113 % of control and the T/C (dose: 200.0 mg/kg/injection, schedule: Q01DX009 (ip), vehicle: saline) was 100 % of control and 103 % of control.
For `Nc1nc(N)c2nc(CN(CCO)c3ccc(C(=O)NC(CCC(=O)O)C(=O)O)cc3)cnc2n1` (stereo unspecified), the T/C (dose: 1.0 mg/kg/injection, schedule: Q01DX009 (ip), vehicle: Klucel (hydroxypropylcellulose) (HPC)) was 190 % of control, the T/C (dose: 1.2 mg/kg/injection, schedule: Q01DX009 (ip), vehicle: Klucel (hydroxypropylcellulose) (HPC)) was 153 % of control and the T/C (dose: 1.8 mg/kg/injection, schedule: Q01DX009 (ip), vehicle: Klucel (hydroxypropylcellulose) (HPC)) was 181 % of control. For the same compound, the T/C (dose: 2.0 mg/kg/injection, schedule: Q01DX009 (ip), vehicle: Klucel (hydroxypropylcellulose) (HPC)) was 205 % of control, the T/C (dose: 2.6 mg/kg/injection, schedule: Q01DX009 (ip), vehicle: Klucel (hydroxypropylcellulose) (HPC)) was 195 % of control and the T/C (dose: 4.0 mg/kg/injection, schedule: Q01DX009 (ip), vehicle: Klucel (hydroxypropylcellulose) (HPC)) was 204 % of control and 223 % of control. For the same compound, the T/C (dose: 6.0 mg/kg/injection, schedule: Q01DX009 (ip), vehicle: Klucel (hydroxypropylcellulose) (HPC)) was 92 % of control.
In the case of `CCCCCCCCCCCC(=O)OC1CCC2(C)C(=CCC3C2CCC2(C)C(C(C)/C=C/C(CC)C(C)C)CCC32)C1` (stereo unspecified), the T/C (dose: 100.0 mg/kg/injection, schedule: Q04DX003 (ip), vehicle: other) is reported as 102 % of control and the T/C (dose: 200.0 mg/kg/injection, schedule: Q04DX003 (ip), vehicle: other) is reported as 102 % of control.
In the case of `O=C1OC(=O)C2=C1CCC2`, the T/C (dose: 12.5 mg/kg/injection, schedule: Q01DX009 (ip), vehicle: distilled water + Tween-80) is reported as 100 % of control, the T/C (dose: 25.0 mg/kg/injection, schedule: Q01DX009 (ip), vehicle: distilled water + Tween-80) is reported as 100 % of control and the T/C (dose: 50.0 mg/kg/injection, schedule: Q01DX009 (ip), vehicle: distilled water + Tween-80) is reported as 91 % of control.
